Measured values published in the NIST ThermoML archive (doi:10.1021/je060376d).
Numbers after ± are expanded uncertainties.

Assay: refractive index (Na D-line) (dimensionless)
Settings: 298.15 K; 101.33 kPa; Liquid; Standard Abbe refractometry

Structure (SMILES)	refractive index
Cc1ccccc1 [toluene]	1.4942 ± 0.0008
COCCOCCOC [2,5,8-trioxanonane]	1.4057 ± 0.0008
CC(C)=O [acetone]	1.3562 ± 0.0012

Second part, the molecule after the results:

refractive index	Structure (SMILES)
1.3853 ± 0.0008	C=CCCCC [hex-1-ene]
1.4236 ± 0.0008	C1CCCCC1 [cyclohexane]
1.3724 ± 0.0007	CCCCCC [hexane]
1.4498 ± 0.0008	O=C1CCCCC1 [cyclohexanone]
